Legend:
[1] = system: wheat; assay: Test A pre-/postemergence greenhouse test; assay type: in vivo, Triticum aestivum; settings: for Plant response rating, Wheat: 0 to 100 scale where 0 is no effect and 100 is complete control; for Wheat plant response rating: 0 to 100 scale
Outline: (§1)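 Pots of loam–sand soil sown with the test species are sprayed preemergence on the soil surface; emerged seedlings (1–2 leaves, 2–10 cm) are sprayed postemergence at the same time. The vehicle is a non-phytotoxic solvent mixture with surfactant. Injury is scored visually after ~10 d in greenhouse.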

[2] = system: corn; assay: Test C pre-/postemergence test; assay type: in vivo, Zea mays; settings: for Plant response rating, Corn: 31 g ai/ha, scale 0 to 100 (0 no effect, 100 complete control)
Outline: (§2)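 Test chemicals were formulated with surfactant in a non-phytotoxic solvent and sprayed both on freshly planted seeds (preemergence) and on 1- to 4-leaf plants of 2–18 cm (postemergence). Flooded-paddy pots received compound directly into 3 cm of standing water, maintained for the test.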

[3] = system: eastern black nightshade; assay: Test C pre-/postemergence test; assay type: in vivo, Solanum ptycanthum; settings: for Plant response rating, Nightshade: 31 g ai/ha, scale 0 to 100 (0 no effect, 100 complete control)
Outline: as §2

[4] = system: wild oat; assay: Test C pre-/postemergence test; assay type: in vivo, Avena fatua; settings: for Plant response rating, Oat, Wild: 31 g ai/ha, scale 0 to 100 (0 no effect, 100 complete control)
Outline: as §2

[5] = system: johnsongrass; assay: Test C pre-/postemergence test; assay type: in vivo, Sorghum halepense; settings: for Plant response rating, Johnsongrass: 31 g ai/ha, scale 0 to 100 (0 no effect, 100 complete control)
Outline: as §2

[6] = system: wheat; assay: Test C pre-/postemergence test; assay type: in vivo, Triticum aestivum; settings: for Plant response rating, Wheat: 31 g ai/ha, scale 0 to 100 (0 no effect, 100 complete control)
Outline: as §2

[7] = system: duck salad; assay: Test C flooded paddy test; assay type: in vivo, Heteranthera limosa; settings: Flood
Outline: (§3)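 Compound was added to standing water 3 cm above soil, flood maintained, and plants held in a greenhouse before visual scoring against controls at 13 to 15 days.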

[8] = system: woolly cupgrass; assay: Test C pre-/postemergence test; assay type: in vivo, Eriochloa villosa; settings: for Plant response rating, Cupgrass, Woolly: 31 g ai/ha, scale 0 to 100 (0 no effect, 100 complete control)
Outline: as §2

[9] = system: redroot pigweed; assay: Test A pre-/postemergence greenhouse test; assay type: in vivo, Amaranthus retroflexus; settings: for Plant response rating, Pigweed: 0 to 100 scale where 0 is no effect and 100 is complete control; for Pigweed plant response rating: 0 to 100 scale
Outline: as §1

[10] = system: catchweed bedstraw; assay: Test C pre-/postemergence test; assay type: in vivo, Galium aparine; settings: for Plant response rating, Galium: 31 g ai/ha, scale 0 to 100 (0 no effect, 100 complete control)
Outline: as §2

[11] = system: velvetleaf; assay: Test C pre-/postemergence test; assay type: in vivo, Abutilon theophrasti; settings: for Plant response rating, Velvetleaf: 31 g ai/ha, scale 0 to 100 (0 no effect, 100 complete control)
Outline: as §2

[12] = system: velvetleaf; assay: Test A pre-/postemergence greenhouse test; assay type: in vivo, Abutilon theophrasti; settings: for Plant response rating, Velvetleaf: 0 to 100 scale where 0 is no effect and 100 is complete control; for Velvetleaf plant response rating: 0 to 100 scale
Outline: as §1

[13] = system: morningglory; assay: Test C pre-/postemergence test; assay type: in vivo, Ipomoea coccinea; settings: for Plant response rating, Morningglory: 31 g ai/ha, scale 0 to 100 (0 no effect, 100 complete control)
Outline: as §2

[14] = system: rice; assay: Test C flooded paddy test; assay type: in vivo, Oryza sativa; settings: Flood
Outline: as §3

[15] = system: yellow nutsedge; assay: Test C pre-/postemergence test; assay type: in vivo, Cyperus esculentus; settings: for Plant response rating, Nutsedge, Yellow: 31 g ai/ha, scale 0 to 100 (0 no effect, 100 complete control)
Outline: as §2

[16] = system: downy brome; assay: Test C pre-/postemergence test; assay type: in vivo, Bromus tectorum; settings: for Plant response rating, Bromegrass, Downy: 31 g ai/ha, scale 0 to 100 (0 no effect, 100 complete control)
Outline: as §2

[17] = system: giant foxtail; assay: Test C pre-/postemergence test; assay type: in vivo, Setaria faberii; settings: for Plant response rating, Foxtail, Giant: 31 g ai/ha, scale 0 to 100 (0 no effect, 100 complete control)
Outline: as §2

[18] = Postemergence, 500 g ai/ha, 0 is no effect, 100 is complete control
[19] = Preemergence, 125 g ai/ha, 0 no effect, 100 complete control
[20] = Preemergence, 500 g ai/ha, 0 no effect, 100 complete control
[21] = 62 g ai/ha, Preemergence, scale 0 to 100
[22] = 125 g ai/ha, preemergence, scale 0 (no effect) to 100 (complete control)
[23] = preemergence, 250 g ai/ha, scale 0 (no effect) to 100 (complete control)
[24] = 62 g ai/ha, scale 0 to 100 (0 no effect, 100 complete control)
[25] = 250 g ai/ha, scale 0 to 100, 0 no effect, 100 complete control, 13 to 15 days
[26] = Postemergence, 125 g ai/ha, 0 is no effect, 100 is complete control
[27] = preemergence, 125 g ai/ha, scale 0 (no effect) to 100 (complete control)
[28] = 31 g ai/ha, scale 0 to 100 (0 no effect, 100 complete control)
[29] = 62 g ai/ha, scale 0 to 100, 0 no effect, 100 complete control, 13 to 15 days
[30] = 125 g ai/ha, scale 0 to 100, 0 no effect, 100 complete control, 13 to 15 days
[31] = 250 g ai/ha, scale 0 to 100 (0 no effect, 100 complete control)

## CCc1cc[n+]([O-])c(S(=O)(=O)Cc2c(C(F)(F)F)nn(C)c2OC(F)F)c1 [Compound 102]
[1]; Postemergence, 125 g ai/ha
  Plant response rating, Wheat: 50
[1]; [18]
  Wheat plant response rating: 60
[1]; [19]
  Wheat plant response rating: 50
[1]; [20]
  Wheat plant response rating: 100
[2]; [21]
  Corn plant response rating: 0
[2]; [22]
  Corn plant response rating: 0
[2]; Preemergence
  Plant response rating, Corn: 0
[2]; [23]
  Corn plant response rating: 0
[3]; [21]
  Nightshade plant response rating: 90
[3]; [22]
  Nightshade plant response rating: 95
[3]; Preemergence
  Plant response rating, Nightshade: 85
[3]; [23]
  Nightshade plant response rating: 98
[4]; [21]
  Oat, Wild plant response rating: 70
[4]; [22]
  Oat, Wild plant response rating: 90
[4]; Preemergence
  Plant response rating, Oat, Wild: 35
[4]; [23]
  Oat, Wild plant response rating: 95
[5]; [21]
  Johnsongrass plant response rating: 100
[5]; [22]
  Johnsongrass plant response rating: 100
[5]; Preemergence
  Plant response rating, Johnsongrass: 70
[5]; [23]
  Johnsongrass plant response rating: 100
[6]; [21]
  Wheat plant response rating: 0
[6]; [22]
  Wheat plant response rating: 40
[6]; Preemergence
  Plant response rating, Wheat: 0
[6]; [23]
  Wheat plant response rating: 90
[7]; [24]
  Plant response rating, Ducksalad: 0
[7]; [25]
  Plant response rating, Ducksalad: 80
[8]; [21]
  Cupgrass, Woolly plant response rating: 85
[8]; [22]
  Cupgrass, Woolly plant response rating: 85
[8]; Preemergence
  Plant response rating, Cupgrass, Woolly: 50
[8]; [23]
  Cupgrass, Woolly plant response rating: 95
[9]; Postemergence, 125 g ai/ha
  Plant response rating, Pigweed: 70
[9]; [18]
  Pigweed plant response rating: 100
[9]; [19]
  Pigweed plant response rating: 100
[9]; [20]
  Pigweed plant response rating: 100
[10]; [21]
  Galium plant response rating: 95
[10]; [22]
  Galium plant response rating: 100
[10]; Preemergence
  Plant response rating, Galium: 30
[10]; [23]
  Galium plant response rating: 100
[11]; [21]
  Velvetleaf plant response rating: 30
[11]; [22]
  Velvetleaf plant response rating: 80
[11]; Preemergence
  Plant response rating, Velvetleaf: 0
[11]; [23]
  Velvetleaf plant response rating: 95
[12]; Postemergence, 125 g ai/ha
  Plant response rating, Velvetleaf: 70
[12]; [18]
  Velvetleaf plant response rating: 90
[12]; [19]
  Velvetleaf plant response rating: 70
[12]; [20]
  Velvetleaf plant response rating: 100
[13]; [21]
  Morningglory plant response rating: 85
[13]; [22]
  Morningglory plant response rating: 100
[13]; Preemergence
  Plant response rating, Morningglory: 65
[13]; [23]
  Morningglory plant response rating: 100
[14]; [24]
  Plant response rating, Rice: 0
[14]; [25]
  Plant response rating, Rice: 20
[15]; [21]
  Nutsedge, Yellow plant response rating: 50
[15]; [22]
  Nutsedge, Yellow plant response rating: 50
[15]; Preemergence
  Plant response rating, Nutsedge, Yellow: 0
[15]; [23]
  Nutsedge, Yellow plant response rating: 85
[16]; [21]
  Bromegrass, Downy plant response rating: 100
[16]; [22]
  Bromegrass, Downy plant response rating: 100
[16]; Preemergence
  Plant response rating, Bromegrass, Downy: 50
[16]; [23]
  Bromegrass, Downy plant response rating: 100
[17]; [21]
  Foxtail, Giant plant response rating: 70
[17]; [22]
  Foxtail, Giant plant response rating: 85
[17]; Preemergence
  Plant response rating, Foxtail, Giant: 60
[17]; [23]
  Foxtail, Giant plant response rating: 85

## Cn1nc(C(F)(F)F)c(C[S+]([O-])c2cccc[n+]2[O-])c1OCC(F)(F)F (racemic) [Compound 28]
[1]; [26]
  Wheat plant response rating: 60
[1]; [18]
  Wheat plant response rating: 70
[1]; [19]
  Wheat plant response rating: 70
[1]; Preemergence, 500 g ai/ha
  Plant response rating, Wheat: 100
[2]; [21]
  Corn plant response rating: 85
[2]; Preemergence
  Plant response rating, Corn: 30
[2]; Preemergence, 250 g ai/ha
  Plant response rating (0 to 100), Corn: 100
[2]; [27]
  Corn plant response rating: 100
[3]; [21]
  Nightshade plant response rating: 100
[3]; Preemergence
  Plant response rating, Nightshade: 90
[4]; [21]
  Oat, Wild plant response rating: 75
[4]; Preemergence
  Plant response rating, Oat, Wild: 70
[5]; [21]
  Johnsongrass plant response rating: 100
[5]; Preemergence
  Plant response rating, Johnsongrass: 85
[5]; Preemergence, 250 g ai/ha
  Plant response rating (0 to 100), Johnsongrass: 100
[6]; [21]
  Wheat plant response rating: 40
[6]; Preemergence
  Plant response rating, Wheat: 0
[7]; [28]
  Plant response rating, Ducksalad: 65
[7]; [29]
  Plant response rating, Ducksalad: 80
[7]; [30]
  Plant response rating, Ducksalad: 95
[7]; [31]
  Plant response rating, Ducksalad: 95
[8]; [21]
  Cupgrass, Woolly plant response rating: 100
[8]; Preemergence
  Plant response rating, Cupgrass, Woolly: 70
[8]; Preemergence, 250 g ai/ha
  Plant response rating (0 to 100), Cupgrass, Woolly: 100
[9]; [26]
  Pigweed plant response rating: 70
[9]; [18]
  Pigweed plant response rating: 90
[9]; [19]
  Pigweed plant response rating: 100
[9]; Preemergence, 500 g ai/ha
  Plant response rating, Pigweed: 100
[10]; [21]
  Galium plant response rating: 100
[10]; Preemergence
  Plant response rating, Galium: 100
[10]; Preemergence, 250 g ai/ha
  Plant response rating (0 to 100), Galium: 100
[11]; [21]
  Velvetleaf plant response rating: 100
[11]; Preemergence
  Plant response rating, Velvetleaf: 80
[12]; [26]
  Velvetleaf plant response rating: 70
[12]; [18]
  Velvetleaf plant response rating: 80
[12]; [19]
  Velvetleaf plant response rating: 80
[12]; Preemergence, 500 g ai/ha
  Plant response rating, Velvetleaf: 100
[13]; [21]
  Morningglory plant response rating: 100
[13]; Preemergence
  Plant response rating, Morningglory: 40
[14]; [28]
  Plant response rating, Rice: 0
[14]; [29]
  Plant response rating, Rice: 25
[14]; [30]
  Plant response rating, Rice: 65
[14]; [31]
  Plant response rating, Rice: 80
[15]; [21]
  Nutsedge, Yellow plant response rating: 80
[15]; Preemergence
  Plant response rating, Nutsedge, Yellow: 80
[16]; [21]
  Bromegrass, Downy plant response rating: 40
[16]; Preemergence
  Plant response rating, Bromegrass, Downy: 0
[16]; Preemergence, 250 g ai/ha
  Plant response rating (0 to 100), Bromegrass, Downy: 100
[16]; [27]
  Bromegrass, Downy plant response rating: 50
[17]; [21]
  Foxtail, Giant plant response rating: 100
[17]; Preemergence
  Plant response rating, Foxtail, Giant: 95
[17]; Preemergence, 250 g ai/ha
  Plant response rating (0 to 100), Foxtail, Giant: 100

Reference: patent US20100298141A1, “SUBSTITUTED PYRIDINE N-OXIDE HERBICIDES” (E. I. DU PONT DE NEMOURS AND COMPANY, priority 2007, published 2010)
